Source: US5284853A, “Angiotensin II receptor blocking 2,3,6 substituted quinazolinones” (American Cyanamid Company, priority 1993, dated 1994)
Several values for one entry are separate records, joined by “and”; a condition that tells them apart may be missing. Equal values may be shown once.

Tests used:
Angiotensin II Receptor = target: T1, Angiotensin II Receptor (Bos taurus, UniProt P25104); assay: Receptor binding assay: competition of [^125 I](Sar^1,Ile^8)AngII binding to beef adrenal cortex microsomal membranes; details: 60 min, room temperature, pH 7.4
T1 construct: The brownish tissue forming the adrenal cortex is scraped off and finely minced with scissors before homogenization; tissue local slaughter house (Maxwell-Cohen); host or cells: beef adrenal cortex, microsomal membranes (100,000×g pellet)
T1 sequence (P25104 1-359): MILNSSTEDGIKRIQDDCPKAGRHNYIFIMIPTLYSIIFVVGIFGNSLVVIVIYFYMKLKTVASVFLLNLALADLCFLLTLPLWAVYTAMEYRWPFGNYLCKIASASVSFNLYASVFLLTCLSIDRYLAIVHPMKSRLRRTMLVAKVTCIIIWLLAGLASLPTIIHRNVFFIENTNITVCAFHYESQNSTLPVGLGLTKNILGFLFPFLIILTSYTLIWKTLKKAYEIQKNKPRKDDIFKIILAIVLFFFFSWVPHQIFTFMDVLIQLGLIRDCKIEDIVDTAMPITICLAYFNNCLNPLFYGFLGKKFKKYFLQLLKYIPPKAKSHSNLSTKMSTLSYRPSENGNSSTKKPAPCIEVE
Excerpt: Beef adrenals are obtained from a local slaughter house (Maxwell-Cohen). [^125 […]. 2200 Ci/mmole, is purchased from Dupont (KEN@, Boston, Mass.). All unlabeled AngII analogs, Dimethylsulfoxide (DMSO), nucleotides, bovine serum albumin (BBA) are purchased from Sigma Chemical Co., St. Louis, MO U.S.A. Approximately sixteen (16) to twenty (20) beef adrenal glands are processed as follows: fresh adrenal glands received on crushed ice are cleaned of fatty tissues and the tough membranes encapsulating the glands are removed and discarded. The brownish tissue forming the adrenal cortex is scraped off and finely minced with scissors before homogenization care is taken to avoid contamination with medullary tissue during dissection. […] Unless otherwise indicated, all subsequent operations are done at […]. […] The homogenate is centrifuged first at low speed (3,000×g) for 10 min. […] This P2 pellet is discarded and the liquid phase is carefully decanted off in clean centrifuge tubes and recentrifuged at high speed (100,000×g) for 60 min. The translucent final pellet is harvested and combined in a small volume (20-50.0 ml) of […] Tris.HCl buffer, pH 7.2. A 100 ul aliquot is withdrawn and the protein content of the preparation is determined by the Lowry's method (Lowry, O. H., Rosebrough, N. P., Parr, A. L. and Randall, R. J., Protein measurement with Folin phenol reagent. J. Biol. Chem., […], 265-275, 1951). The pelleted membrane is reconstituted in 50.0 mM Tris.HCl buffer containing 0.1 mM of phenylmethylsulfonyl fluoride (PMSF) to give approximately a protein concentration of 2.5 mg per ml of tissue suspension. […] In competition studies, experimental compounds are diluted in dimethylsulfoxide (DMSO) and added in 20 ul to wells before the introduction of tissue membranes. This concentration of DMSO is found to have no negative effects on the binding of [^125 I] ([…] to the membranes. Assays are performed in triplicate. The wells are left undisturbed for 60 min. at room temperature. Following incubation, all wells are harvested at once with a Brandel® Harvester especially designed for a 96 well plate (Brandel® Biomedical Research & Development Labs. Inc., Gaithersburg, MD, U.S.A.). The filter discs are washed with 10×1.0 ml of cold 0.9% NaCl to remove unbound ligand. Presoaking the filter sheet in 0.1% polyethyleneimine in normal saline (PEI/Saline) greatly reduces the radioactivity retained by the filter blanks. This method is routinely used. The filters are removed from the filter grid and counted in a Parkard® Cobra Gamma Counter for 1 min. (Packard Instrument Co., Downers Grove, Ill, U.S.A.). The binding data are analyzed by the non-linear interactive "LUNDON-11" program (LUNDON SOFTWARE Inc., Cleveland, OH U.S.A.).

[1] = system: Angiotensin II (AII) vasopressor response; assay: AII Challenge: antagonism of the angiotensin II vasopressor response in conscious SHR; assay type: in vivo, Spontaneously hypertensive rats (Male okamoto-Aoki SHR); details: 10 mg/kg I.V.; for Average Change / Inhibition: n = 2; for Change / Control Before AII / Response After AII: per rat
Excerpt: […] Conscious Male okamoto-Aoki SHR, 16-20 weeks old, weighing approximately 330 g are purchased from Charles River Labs (Wilmington, MA). Conscious rats are restrained in a supine position with elastic tape. The area at the base of the tail is locally anesthetized by subcutaneous infiltration with 2% procaine. […] The cannula is secured, heparinized (1,000 I.U./ml), sealed and the wound is closed. The animals are placed in plastic restraining cages in an upright position. The cannula is attached to a Statham P23Db pressure transducer, and pulsatile blood pressure is recorded to 10-15 minutes with a Gould Brush recorder. (Chan et al., (Drug Development Res., 18:75-94, 1989). […] Co., St. […] […] […] […] […] A compound is considered active if at 30 mg/kg i.v. it antagonized at least 50% of the response.

[2] = AII 0.05 mcg/kg IV, 30 min post dose
[3] = AII 0.05 mcg/kg IV, 60 min post dose
[4] = AII 0.05 mcg/kg IV, 90 min post dose
[5] = AII 0.05 mcg/kg IV, 120 min post dose
[6] = AII 0.05 mcg/kg IV, 180 min post dose
[7] = AII 0.1 mcg/kg IV, 30 min post dose
[8] = AII 0.1 mcg/kg IV, 60 min post dose
[9] = AII 0.1 mcg/kg IV, 90 min post dose
[10] = AII 0.1 mcg/kg IV, 120 min post dose
[11] = AII 0.1 mcg/kg IV, 180 min post dose

Q: With `CCCCc1nc2ccc(C3CC(C(=O)OCC)=NO3)cc2c(=O)n1Cc1ccc(-c2ccccc2-c2nnn[nH]2)cc1` (stereo not drawn) [Example 26, Ethyl 5-[2-butyl-3,4-dihydro-4-oxo-3-[[2'-(lH-tetrazol-5-yl)[1,1'-biphenyl]-4-yl]-methyl]-6-cruinazo-linyl]-4,5-dihydro-3-isoxazolecarboxylate] as the compound, how does the IC50 (Angiotensin II Receptor) read?
A: Its IC50 is 30 nM.

Q: And the “Average Change” value [1, 2]?
A: The value was 15 mmhg.

Q: What about the Inhibition [1, 2] of the same compound?
A: Its Inhibition is 73%.

Q: And the Change [1, 2]?
A: The Change was 15 mmhg.

Q: And the “Control Before AII” value [1, 2]?
A: The value was 180 mmhg and 175 mmhg.

Q: What about the “Response After AII” value [1, 2] of the same compound?
A: The value was 195 mmhg and 190 mmhg.

Q: What about the “Average Change” value [1, 3] of the same compound?
A: Its value is 10.5 mmhg.

Q: And the Inhibition [1, 3]?
A: The Inhibition was 81%.

Q: What about the Change [1, 3] of the same compound?
A: The Change was 20 mmhg and 1 mmhg.

Q: And the “Control Before AII” value [1, 3]?
A: Its value is 175 mmhg and 195 mmhg.

Q: What about the “Response After AII” value [1, 3] of the same compound?
A: The value was 195 mmhg and 196 mmhg.

Q: And the “Average Change” value [1, 4]?
A: Its value is 17 mmhg.

Q: What about the Inhibition [1, 4] of the same compound?
A: The Inhibition was 70%.

Q: And the Change [1, 4]?
A: The Change was 15 mmhg and 19 mmhg.

Q: What about the “Control Before AII” value [1, 4] of the same compound?
A: Its value is 175 mmhg and 165 mmhg.

Q: And the “Response After AII” value [1, 4]?
A: Its value is 190 mmhg and 184 mmhg.

Q: And the “Average Change” value [1, 5]?
A: Its value is 20 mmhg.

Q: What about the Inhibition [1, 5] of the same compound?
A: Its Inhibition is 64%.

Q: What about the Change [1, 5] of the same compound?
A: Its Change is 20 mmhg.

Q: What about the “Control Before AII” value [1, 5] of the same compound?
A: Its value is 165 mmhg.

Q: What about the “Response After AII” value [1, 5] of the same compound?
A: The value was 185 mmhg.

Q: What about the “Average Change” value [1, 6] of the same compound?
A: The value was 17.5 mmhg.

Q: And the Inhibition [1, 6]?
A: The Inhibition was 69%.

Q: And the Change [1, 6]?
A: The Change was 15 mmhg and 20 mmhg.

Q: What about the “Control Before AII” value [1, 6] of the same compound?
A: Its value is 170 mmhg and 165 mmhg.

Q: And the “Response After AII” value [1, 6]?
A: Its value is 185 mmhg.

Q: And the “Average Change” value [1, 7]?
A: The value was 11 mmhg.

Q: What about the Inhibition [1, 7] of the same compound?
A: Its Inhibition is 79%.

Q: And the Change [1, 7]?
A: Its Change is 7 mmhg and 15 mmhg.

Q: And the “Control Before AII” value [1, 7]?
A: The value was 185 mmhg and 170 mmhg.

Q: And the “Response After AII” value [1, 7]?
A: Its value is 192 mmhg and 185 mmhg.

Q: What about the “Average Change” value [1, 8] of the same compound?
A: Its value is 12.5 mmhg.

Q: And the Inhibition [1, 8]?
A: The Inhibition was 77%.

Q: And the Change [1, 8]?
A: Its Change is 15 mmhg and 10 mmhg.

Q: What about the “Control Before AII” value [1, 8] of the same compound?
A: Its value is 180 mmhg and 175 mmhg.

Q: And the “Response After AII” value [1, 8]?
A: The value was 195 mmhg and 185 mmhg.

Q: What about the “Average Change” value [1, 9] of the same compound?
A: The value was 15 mmhg.

Q: What about the Inhibition [1, 9] of the same compound?
A: The Inhibition was 72%.

Q: And the Change [1, 9]?
A: Its Change is 15 mmhg.

Q: What about the “Control Before AII” value [1, 9] of the same compound?
A: Its value is 185 mmhg and 175 mmhg.

Q: What about the “Response After AII” value [1, 9] of the same compound?
A: Its value is 200 mmhg and 190 mmhg.

Q: And the “Average Change” value [1, 10]?
A: Its value is 18.5 mmhg.

Q: And the Inhibition [1, 10]?
A: Its Inhibition is 65%.

Q: And the Change [1, 10]?
A: Its Change is 17 mmhg and 20 mmhg.

Q: What about the “Control Before AII” value [1, 10] of the same compound?
A: The value was 175 mmhg and 165 mmhg.

Q: What about the “Response After AII” value [1, 10] of the same compound?
A: Its value is 192 mmhg and 185 mmhg.

Q: What about the “Average Change” value [1, 11] of the same compound?
A: The value was 38.5 mmhg.

Q: What about the Inhibition [1, 11] of the same compound?
A: Its Inhibition is 28%.

Q: And the Change [1, 11]?
A: The Change was 37 mmhg and 40 mmhg.

Q: What about the “Control Before AII” value [1, 11] of the same compound?
A: Its value is 170 mmhg and 165 mmhg.

Q: And the “Response After AII” value [1, 11]?
A: Its value is 207 mmhg and 205 mmhg.
